Test results published in PubChem BioAssay (NCI).
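At the GI50, growth is halved. TGI is the concentration that stops growth completely.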

Assays:
Test in all cases: NCI anticancer screen, dose series, 384-well format
MOLT-4 leukemia = system: MOLT-4 leukemia
MDA-MB-468 breast = system: MDA-MB-468 breast
UO-31 renal = system: UO-31 renal
SN12C renal = system: SN12C renal
RPMI-8226 leukemia = system: RPMI-8226 leukemia
SF-295 CNS = system: SF-295 CNS
NCI-H522 lung = system: NCI-H522 lung
COLO 205 colon = system: COLO 205 colon
A549 NSCLC = system: A549 NSCLC
SK-MEL-28 melanoma = system: SK-MEL-28 melanoma
U251 glioblastoma = system: U251 glioblastoma
BT-549 breast = system: BT-549 breast
HOP-92 NSCLC = system: HOP-92 NSCLC
SK-OV-3 ovarian = system: SK-OV-3 ovarian
UACC-257 melanoma = system: UACC-257 melanoma
MALME-3M melanoma = system: MALME-3M melanoma
ACHN renal = system: ACHN renal
HCT-116 colon = system: HCT-116 colon
NCI-H226 lung = system: NCI-H226 lung
SF-268 CNS = system: SF-268 CNS
SR leukemia = system: SR leukemia
HOP-62 NSCLC = system: HOP-62 NSCLC
IGROV1 ovarian = system: IGROV1 ovarian
OVCAR-8 ovarian = system: OVCAR-8 ovarian
UACC-62 melanoma = system: UACC-62 melanoma
MDA-MB-435 melanoma = system: MDA-MB-435 melanoma
RXF 393 renal = system: RXF 393 renal
SK-MEL-5 melanoma = system: SK-MEL-5 melanoma
M14 melanoma = system: M14 melanoma

In the case of `O=P1(S)OC[C@H]2O[C@@H]3[C@H](F)[C@@H]2OP(O)(=S)OC[C@H]2O[C@H]([C@H](F)[C@@H]2O1)n1cnc2c(ncnc21)NC/C=C/CNc1ncnc2c1ncn23` (some centres not stated), the GI50 (MOLT-4 leukemia) is reported as 5.67 µM, the TGI (MOLT-4 leukemia) is reported as 20.6 µM and the GI50 (MDA-MB-468 breast) is reported as 2.24 µM. The TGI (MDA-MB-468 breast) was 7.62 µM, the GI50 (UO-31 renal) was greater than 100 µM and the TGI (UO-31 renal) was greater than 100 µM. It also gave a GI50 (SN12C renal) greater than 100 µM, a TGI (SN12C renal) greater than 100 µM and a GI50 (RPMI-8226 leukemia) of 22.1 µM. The TGI (RPMI-8226 leukemia) was greater than 100 µM, the GI50 (SF-295 CNS) was greater than 100 µM and the TGI (SF-295 CNS) was greater than 100 µM. The GI50 (NCI-H522 lung) was 7.35 µM, the TGI (NCI-H522 lung) was 44.2 µM and the GI50 (COLO 205 colon) was 48.6 µM. It also gave a TGI (COLO 205 colon) greater than 100 µM, a GI50 (A549 NSCLC) greater than 100 µM and a TGI (A549 NSCLC) greater than 100 µM. It also gave a GI50 (SK-MEL-28 melanoma) greater than 100 µM, a TGI (SK-MEL-28 melanoma) greater than 100 µM and a GI50 (U251 glioblastoma) greater than 100 µM. The TGI (U251 glioblastoma) was greater than 100 µM, the GI50 (BT-549 breast) was 9.28 µM and the TGI (BT-549 breast) was greater than 100 µM. For the same molecule, the GI50 (HOP-92 NSCLC) was greater than 100 µM, the TGI (HOP-92 NSCLC) was greater than 100 µM and the GI50 (SK-OV-3 ovarian) was 24.3 µM. It also gave a TGI (SK-OV-3 ovarian) greater than 100 µM, a GI50 (UACC-257 melanoma) of 0.151 µM and a TGI (UACC-257 melanoma) of 19.3 µM. For the same molecule, the GI50 (MALME-3M melanoma) was greater than 100 µM, the TGI (MALME-3M melanoma) was greater than 100 µM and the GI50 (ACHN renal) was greater than 100 µM. It also gave a TGI (ACHN renal) greater than 100 µM, a GI50 (HCT-116 colon) greater than 100 µM and a TGI (HCT-116 colon) greater than 100 µM. For the same molecule, the GI50 (NCI-H226 lung) was 0.0932 µM, the TGI (NCI-H226 lung) was 0.361 µM and the GI50 (SF-268 CNS) was greater than 100 µM. For the same molecule, the TGI (SF-268 CNS) was greater than 100 µM, the GI50 (SR leukemia) was 0.0295 µM and the TGI (SR leukemia) was 0.101 µM. For the same molecule, the GI50 (HOP-62 NSCLC) was greater than 100 µM, the TGI (HOP-62 NSCLC) was greater than 100 µM and the GI50 (IGROV1 ovarian) was greater than 100 µM. It also gave a TGI (IGROV1 ovarian) greater than 100 µM, a GI50 (OVCAR-8 ovarian) greater than 100 µM and a TGI (OVCAR-8 ovarian) greater than 100 µM. For the same molecule, the GI50 (UACC-62 melanoma) was greater than 100 µM, the TGI (UACC-62 melanoma) was greater than 100 µM and the GI50 (MDA-MB-435 melanoma) was 2.97 µM. It also gave a TGI (MDA-MB-435 melanoma) of 46 µM, a GI50 (RXF 393 renal) of 0.0445 µM and a TGI (RXF 393 renal) of 19.7 µM. For the same molecule, the GI50 (SK-MEL-5 melanoma) was greater than 100 µM, the TGI (SK-MEL-5 melanoma) was greater than 100 µM and the GI50 (M14 melanoma) was greater than 100 µM.
